In article PMC10203105 (Communications Biology, 2023):

Tests used:
[1] = biological target: T1, AtDHDPR1 (dihydrodipicolinate reductase 1) (Arabidopsis thaliana, UniProt O80574); assay: DHDPS-DHDPR coupled spectrophotometric assay (NADPH oxidation, […] nm); assay type: biochemical
T1 construct: gene DAPB1; excludes the first 51 amino acids (chloroplast transit peptide); tag cleaved
T1 sequence (O80574 52-347): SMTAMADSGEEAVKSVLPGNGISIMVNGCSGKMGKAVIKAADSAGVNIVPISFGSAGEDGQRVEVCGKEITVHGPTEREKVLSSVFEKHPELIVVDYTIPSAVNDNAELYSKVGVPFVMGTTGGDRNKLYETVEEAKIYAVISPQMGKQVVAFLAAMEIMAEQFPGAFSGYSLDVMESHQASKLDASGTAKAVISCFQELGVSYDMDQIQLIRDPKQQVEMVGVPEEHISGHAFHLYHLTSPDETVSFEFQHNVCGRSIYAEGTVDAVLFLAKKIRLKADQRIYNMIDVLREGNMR

[2] = biological target: T2, AtDHDPR2 (dihydrodipicolinate reductase 2) (Arabidopsis thaliana, UniProt Q8LB01); assay: as above; assay type: biochemical
T2 construct: gene DAPB2; excludes the 53-amino-acid chloroplast transit peptide; tag cleaved
T2 sequence (Q8LB01 54-349): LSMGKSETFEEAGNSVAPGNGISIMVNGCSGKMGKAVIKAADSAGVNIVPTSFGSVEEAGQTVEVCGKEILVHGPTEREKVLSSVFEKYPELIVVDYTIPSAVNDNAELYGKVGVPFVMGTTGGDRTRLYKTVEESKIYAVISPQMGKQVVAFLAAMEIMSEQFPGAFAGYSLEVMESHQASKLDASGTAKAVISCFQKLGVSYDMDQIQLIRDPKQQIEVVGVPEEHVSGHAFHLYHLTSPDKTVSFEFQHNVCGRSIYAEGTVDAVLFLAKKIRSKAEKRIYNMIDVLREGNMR

[3] = substrate: O=C(O)C1=NC(C(=O)O)CC=C1; assay: purified protein; conditions: NADPH
[4] = substrate: NC(=O)C1=CN([C@@H]2O[C@H](COP(=O)(O)OP(=O)(O)OC[C@H]3O[C@@H](n4cnc5c(N)ncnc54)[C@H](OP(=O)(O)O)[C@@H]3O)[C@@H](O)[C@H]2O)C=CC1; assay: purified protein; conditions: varied: cofactor

Molecule: O=C(O)c1cccc(C(=O)O)n1 [2,6-PDC, 2,6-pyridinedicarboxylic acid]
- IC50 [1]: 140 µM
- IC50 [2]: 470 µM

B1: AtDHDPR1 (dihydrodipicolinate reductase 1) (Arabidopsis thaliana) (protein)
chain: T1 sequence (O80574 52-347)
- Km [3]: 37 ± 6.5 µM
- Km [4]: 16 ± 2.6 µM
